In the experiment the test system is influenza virus H1N1. The experiment in a line: Hemagglutination test of supernatants of influenza-infected A549 cells. Type of experiment: cell-based, influenza virus H1N1 (A549 cells). The settings on record: for hemagglutination titer, average values: average of the two inoculation treatments (Protocol 1 and 2); for inhibitory effect on the influenza virus (in words): from average hemagglutination titers, high titer indicates high virus content. On the procedure:
A total of four samples were prepared in this experiment: • (1) a lauric acid sample: 3.5 mg of lauric acid was dissolved in 0.5 mL of dimethyl sulfoxide, and then diluted with 9.5 mL of cell culture medium to a final concentration of 0.35 mg/mL and a pH value of the sample was 10.1; • (2) an α-monolaurin sample: 4.8 mg of α-monolaurin was dissolved in 0.5 mL of dimethyl sulfoxide, and then diluted with 9.5 mL of cell culture medium to a final concentration of 0.48 mg/mL and a pH value of the sample was 10.3; • (3) a triglycerol monolaurin sample: 7.5 mg of triglycerol monolaurin was diluted with 10 mL of cell culture medium to a final concentration of 0.75 mg/mL and a pH value of the sample was 7.6; and • (4) a triglycerol monolaurin acidic emulsion sample: 50 mg of triglycerol monolaurin acidic emulsion sample was diluted with 10 mL of cell culture medium to a final concentration of 5 mg/mL and a pH value of the sample was 7.5.
According to equivalent lauric acid concentration conversion, lauric acid concentrations in the samples (2) to (4) were all 0.35 mg/mL, which was equal to that in the sample (1).
The A549 cells were cultured in a 24-well plate, after growing to a monolayer, the cells were treated according to the following two protocols: • I. The cell culture medium was removed, the virus was added, the cells were cultured in an incubator with 5% CO2 at 37° C. for 1 h, the virus solution was removed, each prepared sample was added, 12 parallel test wells were set for each group, and the cells were cultured in the incubator with 5% CO2 at 37° C. for 1 h. After the culture, liquids in the cell culture wells were removed, the cells were washed with PBS, added with a cell maintenance medium, and cultured in the incubator with 5% CO2 at 37° C. for 24 h. Meanwhile, a virus positive control group (a cell culture medium mixed with influenza virus 24HAU was added) was set. • II. The cell culture medium was removed, each prepared sample and the virus were added, 12 parallel test wells were set for each group, and the cells were cultured in an incubator with 5% CO2 at 37° C. for 1 h. After the culture, liquids in the cell culture wells were removed, the cells were washed with PBS, added with a cell maintenance medium, and cultured in the incubator with 5% CO2 at 37° C. for 24 h. Meanwhile, a virus positive control group (a cell culture medium mixed with influenza virus 24HAU was added) was set.
Cell culture supernatants respectively obtained by the above 2 treatment methods were used for hemagglutination test, each culture plate was frozen and thawed repeatedly 3 times, a cell solution was collected for extraction of RNA, which was used for qRT-PCR detection of nucleoprotein (NP).

On to triglycerol monolaurin [(3)], for which the “hemagglutination titer, average values” is listed as 4.25 and the “inhibitory effect on the influenza virus (in words)” value (“inhibitory effect” for short) is “weaker compared to the sample (4)”.

As for `CCCCCCCCCCCC(=O)O` [(1), lauric acid], the “hemagglutination titer, average values” is recorded as 4.75 and the “inhibitory effect” value is recorded as “weaker compared to the sample (4)”.

With `CCCCCCCCCCCC(=O)OCC(O)CO` (stereo not drawn) [(2), α-monolaurin], the “hemagglutination titer, average values” is 2.25 and the “inhibitory effect” value is reported as “the strongest”.

Source of the values: patent US20230301957A1, “PO[…] ACID ESTER COMPOSITION AND APPLICATION THEREOF” (SINGAO (XUZHOU) BIOTECH CO., LTD, priority 2020, published 2023).
